Data: the Kinase Knowledgebase extract (Sharma et al. 2016)
pIC50: −log10 of the molar value.

Key:
[1] = target: PIK3CA (human) (UniProt P42336); assay: Assessment of PIK3CA Kinase Activity
[2] = target: PIK3CD (Human) (UniProt O00329); assay: Assessment of PIK3CD Kinase Activity
[3] = target: PIK3CB (Human) (UniProt P42338); assay: Assessment of PIK3CB Kinase Activity
Sequence of PIK3CB (Human) (P42338 whole entry, looked up): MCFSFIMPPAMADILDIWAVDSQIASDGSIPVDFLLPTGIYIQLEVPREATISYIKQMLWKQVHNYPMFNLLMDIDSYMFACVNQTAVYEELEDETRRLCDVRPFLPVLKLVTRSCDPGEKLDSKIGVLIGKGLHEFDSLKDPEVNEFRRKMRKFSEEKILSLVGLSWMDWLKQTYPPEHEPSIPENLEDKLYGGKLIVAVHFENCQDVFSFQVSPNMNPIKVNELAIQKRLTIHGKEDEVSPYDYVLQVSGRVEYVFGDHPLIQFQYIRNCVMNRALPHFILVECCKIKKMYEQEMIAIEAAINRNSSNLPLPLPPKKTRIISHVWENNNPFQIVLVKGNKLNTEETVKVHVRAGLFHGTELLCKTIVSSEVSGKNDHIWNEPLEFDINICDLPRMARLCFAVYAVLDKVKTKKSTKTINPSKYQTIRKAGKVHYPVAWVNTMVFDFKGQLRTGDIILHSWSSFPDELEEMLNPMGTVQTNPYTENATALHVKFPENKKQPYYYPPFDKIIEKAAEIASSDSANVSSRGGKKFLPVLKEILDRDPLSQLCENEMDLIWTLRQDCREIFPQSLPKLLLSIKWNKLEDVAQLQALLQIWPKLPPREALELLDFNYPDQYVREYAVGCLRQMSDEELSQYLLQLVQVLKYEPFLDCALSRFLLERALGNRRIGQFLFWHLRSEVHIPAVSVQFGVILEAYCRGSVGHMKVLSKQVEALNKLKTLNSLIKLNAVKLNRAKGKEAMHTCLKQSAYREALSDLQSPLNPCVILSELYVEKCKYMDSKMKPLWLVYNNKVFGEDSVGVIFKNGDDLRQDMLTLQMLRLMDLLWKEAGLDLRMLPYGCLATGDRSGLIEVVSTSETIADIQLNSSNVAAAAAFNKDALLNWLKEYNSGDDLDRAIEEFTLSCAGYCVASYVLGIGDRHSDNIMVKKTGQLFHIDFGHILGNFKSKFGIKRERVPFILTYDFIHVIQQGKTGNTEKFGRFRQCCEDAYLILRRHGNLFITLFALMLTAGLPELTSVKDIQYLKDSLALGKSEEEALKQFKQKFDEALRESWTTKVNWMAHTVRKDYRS

Sequence of PIK3CD (Human) (O00329 whole entry, looked up): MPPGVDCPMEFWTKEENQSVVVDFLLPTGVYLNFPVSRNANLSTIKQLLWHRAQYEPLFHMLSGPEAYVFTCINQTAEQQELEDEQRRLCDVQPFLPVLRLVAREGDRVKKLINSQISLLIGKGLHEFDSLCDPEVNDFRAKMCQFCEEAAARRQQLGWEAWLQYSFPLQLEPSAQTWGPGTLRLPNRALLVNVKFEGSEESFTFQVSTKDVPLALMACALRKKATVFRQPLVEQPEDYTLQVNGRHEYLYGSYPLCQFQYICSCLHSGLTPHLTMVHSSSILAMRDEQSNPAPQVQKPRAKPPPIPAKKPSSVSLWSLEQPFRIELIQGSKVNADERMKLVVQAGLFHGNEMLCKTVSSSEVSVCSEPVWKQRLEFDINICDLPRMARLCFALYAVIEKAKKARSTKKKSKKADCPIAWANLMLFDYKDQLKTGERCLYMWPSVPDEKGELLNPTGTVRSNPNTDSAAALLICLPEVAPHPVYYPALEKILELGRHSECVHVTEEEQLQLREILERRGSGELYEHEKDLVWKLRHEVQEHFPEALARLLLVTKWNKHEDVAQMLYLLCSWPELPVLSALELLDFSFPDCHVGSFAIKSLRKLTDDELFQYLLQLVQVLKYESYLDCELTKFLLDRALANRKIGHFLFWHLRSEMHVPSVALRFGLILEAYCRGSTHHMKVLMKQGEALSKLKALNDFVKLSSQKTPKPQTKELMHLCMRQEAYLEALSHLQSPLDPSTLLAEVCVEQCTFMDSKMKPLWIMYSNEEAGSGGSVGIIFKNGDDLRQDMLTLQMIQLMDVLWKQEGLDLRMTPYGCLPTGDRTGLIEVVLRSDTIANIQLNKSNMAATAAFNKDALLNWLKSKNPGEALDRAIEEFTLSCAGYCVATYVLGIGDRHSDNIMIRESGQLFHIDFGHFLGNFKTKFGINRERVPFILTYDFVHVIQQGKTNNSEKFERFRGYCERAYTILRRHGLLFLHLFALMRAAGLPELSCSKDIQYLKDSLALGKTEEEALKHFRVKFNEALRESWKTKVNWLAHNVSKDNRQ
Sequence of PIK3CA (human) (P42336 whole entry, looked up): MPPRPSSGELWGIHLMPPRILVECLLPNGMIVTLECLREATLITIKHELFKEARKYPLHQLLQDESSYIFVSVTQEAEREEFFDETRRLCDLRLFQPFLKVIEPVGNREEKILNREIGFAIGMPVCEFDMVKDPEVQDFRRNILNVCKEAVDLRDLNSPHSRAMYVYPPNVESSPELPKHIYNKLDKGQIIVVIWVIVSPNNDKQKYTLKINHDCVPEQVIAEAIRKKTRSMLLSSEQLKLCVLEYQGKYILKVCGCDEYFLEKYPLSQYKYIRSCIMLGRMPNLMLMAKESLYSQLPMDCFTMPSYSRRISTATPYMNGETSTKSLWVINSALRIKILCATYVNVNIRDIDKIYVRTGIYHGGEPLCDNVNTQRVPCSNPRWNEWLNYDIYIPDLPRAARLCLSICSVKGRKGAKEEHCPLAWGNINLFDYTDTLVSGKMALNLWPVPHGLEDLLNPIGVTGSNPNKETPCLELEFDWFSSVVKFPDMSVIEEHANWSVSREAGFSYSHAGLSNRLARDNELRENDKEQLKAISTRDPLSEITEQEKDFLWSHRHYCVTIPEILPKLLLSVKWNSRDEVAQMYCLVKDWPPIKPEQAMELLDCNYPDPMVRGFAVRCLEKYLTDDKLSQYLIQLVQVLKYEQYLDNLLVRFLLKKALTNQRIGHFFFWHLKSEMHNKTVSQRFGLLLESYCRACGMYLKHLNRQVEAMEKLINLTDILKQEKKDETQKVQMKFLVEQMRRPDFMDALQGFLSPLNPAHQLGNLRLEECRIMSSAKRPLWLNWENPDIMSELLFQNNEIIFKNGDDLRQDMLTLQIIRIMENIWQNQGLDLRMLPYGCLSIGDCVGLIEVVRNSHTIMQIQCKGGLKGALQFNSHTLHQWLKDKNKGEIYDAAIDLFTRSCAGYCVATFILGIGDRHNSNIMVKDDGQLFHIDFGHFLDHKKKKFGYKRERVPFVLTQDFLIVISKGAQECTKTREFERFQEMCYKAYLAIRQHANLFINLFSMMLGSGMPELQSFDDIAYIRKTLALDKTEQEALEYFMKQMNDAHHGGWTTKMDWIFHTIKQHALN

| SMILES | pIC50 [1] | pIC50 [2] | pIC50 [3] |
| --- | --- | --- | --- |
| CCn1cc(-n2c(=O)n(C)c3cnc4ccc(-c5ccc(-n6cccn6)cc5)cc4c32)c(C)n1 | 7.57 | 7.12 |  |
| CCc1ncc(-c2ccc3ncc4c(c3c2)n(-c2cn(C)nc2C)c(=O)n4C)cc1OC(C)C | 7.39 | 7.74 | 7.14 |
| COCc1cc(-c2ccc3ncc4c(c3c2)n(-c2cn(C)nc2Cl)c(=O)n4C)cnc1N | 8.05 | 8.52 | 8.15 |
| CCNc1cc(-c2ccc3ncc4c(c3c2)n(-c2c(C)noc2C)c(=O)n4C)cnc1Cl | 6.86 | 7.66 | 7.00 |
| CCn1cc(-n2c(=O)n(C)c3cnc4ccc(-c5cnc(C)c(OC(C)C)c5)cc4c32)c(C)n1 | 8.40 | 8.30 | 7.52 |
| Cn1cc(-n2c(=O)n(C)c3cnc4ccc(-c5cncc(C(C)(C)O)c5)cc4c32)c(Cl)n1 | 8.10 | 8.30 | 8.30 |
| COCc1ncc(-c2ccc3ncc4c(c3c2)n(-c2cn(C)nc2Cl)c(=O)n4C)cc1OC | 7.82 | 8.30 | 7.62 |
| CCNC(=O)c1cc(-c2ccc3ncc4c(c3c2)n(-c2c(C)nn(C)c2C)c(=O)n4C)cnc1NC | 7.09 | 7.41 | 6.22 |
